Source: patent US10329309B2, “3-(3H-imidazo[4,5-B]pyridin-2-yl)-1H-pyrazolo[4,3-B]pyridines and therapeutic uses thereof” (Samumed, LLC, priority 2015, dated 2019)
Values belong to the compound of their own block, whether it stands above or below them.

What was measured:
Type in all cases: cell-based
[1] = tested on: Wnt activity (Sp5-Luc reporter, SW480 colon carcinoma cells); experiment: Screening assay for Wnt activity: Sp5-Luc reporter gene assay in SW480 cells; details: Homo sapiens; for inhibition at 10 µM: 10 μM compound, read-out: percent inhibition at 10 μM (given for EC50 of >10 μM); for EC50: overnight incubation, 10-point dose-response from 10 μM
Outline: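 SW480 cells stably carrying Sp5-Luc reporter (eight TCF/LEF sites) plated at 4,000/well in 1% FBS medium with compound (10-point 1:3 series from 10 μM, 0.1% DMSO) overnight at 37 °C. BrightGlo luminescence normalized to DMSO; EC50 by four-parameter fit, else % inhibition at 10 μM.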

[2] = tested on: SW480 colon cancer cells; experiment: Cell viability assay (CellTiter-Blue), four days; details: Homo sapiens, 96 h; for EC50: CellTiter-Blue cell viability; for inhibition at 10 µM: read-out: percent inhibition at 10 μM (given for EC50 of >10 μM)
Outline: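 Approximately 2×10^3 SW480 cells per well are seeded with compound (8 points, threefold steps, top 10 μM) and incubated four days at 37 °C. CellTiter-Blue is then added for about 3 h and fluorescence read. Non-linear regression gives EC50; for values beyond 10 μM, percent inhibition at that concentration is listed.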

[3] = tested on: primary human fibroblasts derived from IPF patients (LL29 cells), α-smooth muscle actin (αSMA); experiment: Inhibition of the fibrotic process: TGF-β1-treated primary human fibroblasts from IPF patients, αSMA staining; details: Fibroblast, 96 h, 4 days; for EC50: LL29 fibroblasts from IPF patients, TGF-β1 20 ng/mL, inhibition of fibrotic process; for inhibition at 10 µM: LL29 fibroblasts, TGF-β1 treated, read-out: percent inhibition at 10 μM (given for EC50 of >10 μM)
Outline: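 Compound dilutions from 10 μM down to […] are dispensed, LL29 cells added in F12 with 1% FBS, and TGF-β1 (20 ng/mL) follows after 1 h. After 4 days, live-cell αSMA positivity is measured by immunofluorescence and normalized to TGF-β1-treated wells to derive EC50.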

Structure (SMILES): CCCC(=O)Nc1cncc(-c2ccc3[nH]nc(-c4nc5c(-c6ccncc6)ccnc5[nH]4)c3n2)c1 [Compound 129, N-(5-(3-(7-(pyridin-4-yl)-3H-imidazo[4,5-b]pyridin-2-yl)-1H-pyrazolo[4,3-b]pyridin-5-yl)pyridin-3-yl)butyramide]
- inhibition at 10 µM [1]: 4.3%
- EC50 [1]: > 10 µM
- EC50 [2]: > 10 µM
- inhibition at 10 µM [2]: 5.7%
- EC50 [3]: > 10 µM
- inhibition at 10 µM [3]: 0%

Structure (SMILES): c1cc(-c2ccc3[nH]nc(-c4nc5c(-c6ccncc6)ccnc5[nH]4)c3n2)ccn1 [Compound 130, 5-(pyridin-4-yl)-3-(7-(pyridin-4-yl)-3H-imidazo[4,5-b]pyridin-2-yl)-1H-pyrazolo [4,3-b]pyridine]
- inhibition at 10 µM [1]: 12.1%
- EC50 [1]: > 10 µM
- EC50 [2]: > 10 µM
- inhibition at 10 µM [2]: 0%
- EC50 [3]: > 10 µM
- inhibition at 10 µM [3]: 39.3%

Structure (SMILES): O=C(Nc1cncc(-c2ccc3[nH]nc(-c4nc5c(-c6ccncc6)ccnc5[nH]4)c3n2)c1)C1CCCCC1 [Compound 135, N-(5-(3-(7-(pyridin-4-yl)-3H-imidazo[4,5-b]pyridin-2-yl)-1H-pyrazolo[4,3-b]pyridin-5-yl)pyridin-3-yl)cyclohexanecarboxamide]
- inhibition at 10 µM [1]: 10.4%
- EC50 [1]: > 10 µM
- EC50 [2]: > 10 µM
- inhibition at 10 µM [2]: 3.8%
- EC50 [3]: > 10 µM
- inhibition at 10 µM [3]: 0%

Structure (SMILES): CCC(=O)Nc1cncc(-c2ccc3[nH]nc(-c4nc5c(N6CCCCC6)ccnc5[nH]4)c3n2)c1 [Compound 169, N-(5-(3-(7-(piperidin-1-yl)-3H-imidazo[4,5-b]pyridin-2-yl)-1H-pyrazolo[4,3-b]pyridin-5-yl)pyridin-3-yl)propionamide]
- inhibition at 10 µM [1]: 44.2%
- EC50 [1]: > 10 µM
- EC50 [2]: 4.65 µM
- EC50 [3]: 5.3 µM

Structure (SMILES): CN(C)c1cncc(-c2ccc3[nH]nc(-c4nc5c(N6CCCCC6)ccnc5[nH]4)c3n2)c1 [Compound 175, N,N-dimethyl-5-(3-(7-(piperidin-1-yl)-3H-imidazo[4,5-b]pyridin-2-yl)-1H-pyrazolo [4,3-b]pyridin-5-yl)pyridin-3-amine]
- inhibition at 10 µM [1]: 0%
- EC50 [1]: > 10 µM
- EC50 [2]: > 10 µM
- inhibition at 10 µM [2]: 13.6%
- EC50 [3]: 2.53 µM

Structure (SMILES): CN(C)Cc1cncc(-c2ccc3[nH]nc(-c4nc5c(N6CCCCC6)ccnc5[nH]4)c3n2)c1 [Compound 181, N,N-dimethyl-1-(5-(3-(7-(piperidin-1-yl)-3H-imidazo[4,5-b]pyridin-2-yl)-1H-pyrazolo[4,3-b]pyridin-5-yl)pyridin-3-yl)methanamine]
- inhibition at 10 µM [1]: 2.2%
- EC50 [1]: > 10 µM
- EC50 [2]: 5.55 µM
- EC50 [3]: 1.36 µM

Structure (SMILES): Cc1cn(-c2ccnc3[nH]c(-c4n[nH]c5ccc(-c6cncc(NC(=O)CC(C)C)c6)nc45)nc23)cn1 [Compound 198, 3-methyl-N-(5-(3-(7-(4-methyl-1H-imidazol-1-yl)-3H-imidazo[4,5-b]pyridin-2-yl)-1H-pyrazolo[4,3-b]pyridin-5-yl)pyridin-3-yl)butanamide]
- inhibition at 10 µM [1]: 27.6%
- EC50 [1]: > 10 µM
- EC50 [2]: > 10 µM
- inhibition at 10 µM [2]: 46%
- EC50 [3]: > 10 µM
- inhibition at 10 µM [3]: 0%

Second part, led by results:

- EC50 [1]: > 10 µM
- EC50 [2]: > 10 µM
Structure (SMILES): CCNCc1cncc(-c2ccc3[nH]nc(-c4nc5c(-c6ccccn6)ccnc5[nH]4)c3n2)c1 [Compound 146, N-((5-(3-(7-(pyridin-2-yl)-3H-imidazo[4,5-b]pyridin-2-yl)-1H-pyrazolo[4,3-b]pyridin-5-yl)pyridin-3-yl)methyl)ethanamine]
- inhibition at 10 µM [1]: 10.6%
- inhibition at 10 µM [2]: 23.3%
- EC50 [3]: 1.13 µM

- EC50 [1]: > 10 µM
- EC50 [2]: > 10 µM
Structure (SMILES): O=C(Nc1cncc(-c2ccc3[nH]nc(-c4nc5c(-c6ccccn6)ccnc5[nH]4)c3n2)c1)c1ccccc1 [Compound 151, N-(5-(3-(7-(Pyridin-2-yl)-3H-imidazo[4,5-b]pyridin-2-yl)-1H-pyrazolo[4,3-b]pyridin-5-yl)pyridin-3-yl)benzamide]
- inhibition at 10 µM [1]: 6.4%
- inhibition at 10 µM [2]: 2.7%
- EC50 [3]: > 10 µM
- inhibition at 10 µM [3]: 0%

- EC50 [1]: > 10 µM
- EC50 [2]: > 10 µM
Structure (SMILES): CCCCC(=O)Nc1cncc(-c2ccc3[nH]nc(-c4nc5c(-c6ccccn6)ccnc5[nH]4)c3n2)c1 [Compound 159, N-(5-(3-(7-(pyridin-2-yl)-3H-imidazo[4,5-b]pyridin-2-yl)-1H-pyrazolo[4,3-b]pyridin-5-yl)pyridin-3-yl)pentanamide]
- inhibition at 10 µM [1]: 12.6%
- inhibition at 10 µM [2]: 6.7%
- EC50 [3]: > 10 µM
- inhibition at 10 µM [3]: 15.4%
